# Test results taken from patent US8680153B2, “Method for correcting a lipid imbalance in a subject” (The Royal Institution for the Advancement of …, priority 2005, dated 2014).
# Assays:
# Cftr-KO mice = experiment: μCT of trabecular bone (femur), biweekly treatment for 4 weeks; format: in vivo
# Method: Fenretinide Diet Supplementation. Examples 2 to 6: fenretinide (Sigma-Aldrich, Oakville, ON) powder was resuspended in 95% ethanol and subsequently incorporated in the Peptamen liquid diet. It was protected from light and kept at 4° C. before being given to the mice (5 mg/kg per day per mouse). Mock-treated diets were prepared similarly by adding ethanol to the Peptamen diet but omitting the fenretinide supplementation. The diet was given every morning for 28 consecutive days with specific monitoring of the quantity consumed by the mice in each cage. Examples 7 to 12: fenretinide powder was kindly provided by Dr. Robert Smith (NIH; Bethesda, Md., USA). Fenretinide was resuspended in 95% ethanol to make a 2 μg/μL concentration. Approximately 40 μL of this preparation was incorporated into the Peptamen liquid diet (5 mg/kg per day per mouse). The prepared food containing fenretinide was then stored in the dark at 4° C. for no more than 3 hours prior to being administered to the mice. To ensure that the entire drug dose was consumed, the mice were given 10 mL of fenretinide-treated Peptamen, which represents ⅔ of the daily mouse food consumption, in the late afternoon. The remaining 5 mL of Peptamen (without fenretinide) was given the following morning. Mice were treated twice a week for 4 weeks. During the treatment period each mouse was kept in a separate cage (including WT mice) and was monitored to ensure that the entire amount of Peptamen containing the fenretinide or with out was consumed. The diet for the mock-treated control group was prepared and administered similarly to that described above, by adding the same volume of ethanol to the Peptamen diet but omitting the fenretinide supplementation.
# μ-CT. Mice were sacrificed by CO2 and exsanguinated by cardiac puncture. Femurs, tibiae and vertebrae were extracted, stripped of soft tissue and fixed in 4% paraformaldehyde overnight. Micro Computed Tomography (μCT) was performed on the left femur after overnight fixation. The distal metaphysis was scanned with a Skyscan 1072 μCT instrument (Skyscan, Antwerp, Belgium). Image acquisition was performed at 100 kV and 98 μA, with a 0.9° rotation between frames. The two-dimensional images were used to generate three-dimensional reconstructions to obtain quantitative data using the 3D Creator software supplied with the instrument (ANT 3D Creator software, Skyscan, Antwerp, Belgium).
# Histological analysis. Mice were given an intra-peritoneal injection of 30 mg/kg calcein at 7 days and 2 days prior to sacrifice to label actively mineralizing surfaces. After overnight fixation in 4% paraformaldehyde and rinsing in phosphate buffered saline (PBS), right femurs and tibiae were embedded in polymethylmethacrylate (MMA) or a mixture of 50% MMA and 50% glycolmethacrylate (GMA). Serial 4- to 6-μm sections were cut on a modified Leica RM 2155 rotary microtome (Leica Microsystems, Richmond Hill, Ontario, Canada). MMA-embedded tissues were stained with von Kossa and toluidine blue, while 4 μm MMA-GMA sections were stained with tartrate-resistant acidic phosphatase (TRAP) and alkaline phosphate (ALP) activity. Images were captured using a Leica DMR microscope (Leica Microsystems) equipped with a Retiga 1300 camera (Qimaging, Burnaby, British Columbia, Canada). The left femur and tibia and the lumbar vertebrae were decalcified with 4% EDTA for paraffin embedding after 14 days. Serial 5 μm sections were cut and stained with hematoxylin and esosin (H&E). Osteoblasts were defined as a single-nucleated, rod shaped cells and were identified along the surface of the trabecular lamellae. Osteoclasts were defined as multi-nucleated cells that are much larger then osteoblasts and display typical macrophage morphology.
# P. aeruginosa = experiment: Bacterial load (CFU) in the lungs of infected mice; format: in vivo
# Method: P. aeruginosa Inoculum Preparation. In order to establish a model of prolonged lung infection, bacteria-impregnated agar beads were freshly prepared the day before each experiment according to established methods (Guilbault, et al. (2005) Laboratory Animals 39:336-352), and stored at 4° C. overnight. Briefly, the bacteria (P. aeruginosa strain 508) from an overnight culture were grown for approximately 3 hours in a shaking incubator at 37° C., until it reached a mid-log phase. The log-phase bacteria were concentrated and resuspended in 5 mL of Dulbecco's phosphate-buffered saline (PBS; INVITROGEN™, Mississauga, ON). A 5 mL aliquot of the concentrated bacterial broth was added to 52° C. 1.5% trypticase soy agar (DIFCO®, Detroit, Mich.) (agarose beads free of bacteria were prepared using PBS instead of a bacterial suspension). This mixture was quickly added to 52° C. heavy mineral oil and stirred rapidly, first at room temperature for 6 minutes, followed by ice cooling with continuous stirring for 10 minutes. The oil-agar mixture was centrifuged to sediment the beads. The beads were washed with PBS and their size was verified microscopically and only those preparations containing beads predominantly 100-250 micrometers in diameter were used as inoculum. Inoculum was prepared by diluting the beads suspension to 1×10^6 CFUs per 50 μl (injection volume).
# Mouse Lung Infection. Mice were anaesthetized with a combination of ketamine (7.5 mg/mL) and xylazine (0.5 mg/mL) administered intraperitoneally at a dose of 20 mL/kg of body weight. Once the mouse was successfully anaesthetized, the animal was installed under binoculars (Microscope M650, Wild Leitz, Willowdale, ON) in the vertical position and held on a restraining board by holding the animal by its upper incisor teeth (Guilbault, et al. (2005) supra). […] Mice were monitored 3 times daily; the maximum weight loss allowed was 15%. […]
# Lung Homogenates. […] The number of CFU per lung was counted after overnight incubation at 37° C. […]
# [1] = Cftr-KO mice, left femur, 8 doses over 4 weeks
smiles,measurement,setting,value
"CC1=C(/C=C/C(C)=C/C=C/C(C)=C/C(=O)Nc2ccc(O)cc2)C(C)(C)CCC1 [fenretinide, all-trans-N-(4-hydroxyphenyl) retinamide]",Signs of osteoporosis in the trabecular bone (μCT),"Cftr-KO mice; Cftr-KO mice, biweekly treatment over four weeks (total 8 doses)",completely eliminate any signs of osteoporosis
same,"Bone number (BN), increase vs Cftr-KO not treated",Cftr-KO mice; [1],2.4 fold
same,"Bone volume (BV), increase vs Cftr-KO not treated",Cftr-KO mice; [1],3.1 fold
same,"Bone volume/tissue volume (BV/TV), increase vs untreated Cftr-KO",Cftr-KO mice; [1],2.7 fold
same,"Structural model index (SMI), treated WT vs treated Cftr-KO","Cftr-KO mice; left femur, fenretinide-treated mice",no significant (p=0.320) difference
same,"Trabecular separation, treated WT vs treated Cftr-KO","Cftr-KO mice; left femur, fenretinide-treated mice, p=0.548",no longer a significant difference
same,Decrease of median number of bacteria vs untreated Cftr-KO,"P. aeruginosa; Cftr-KO mice, day 3 post-infection",about 10 fold
same,Median bacterial load in the lungs,"P. aeruginosa; fenretinide-treated Cftr-KO mice, day 3 post-infection, p=0.004 vs untreated",3.8×10^4 CFU/lung
same,Effect on median number of bacteria in the lungs vs untreated infected controls,"P. aeruginosa; wild-type mice, p=0.240",no significant effect
